For one test, the target named is T1, F508del/F508del CFTR (Homo sapiens, UniProt P13569, DEL508-508).
T1 construct: cells isolated from CF patients with the homozygous mutation; endogenous in cells; host or cells: primary human bronchial epithelial (hBE) cells from CF patients homozygous for F508del
The test is described as follows: Trans-Epithelial Current Clamp (TECC) assay using primary human bronchial epithelial cells. It is filed as cell-based. The note with it: for Emax (% Dual): maximum percent activity relative to positive control (co-corrector 0.15 μM + potentiator 0.45 μM = 100%), primary hBE cells F508del/F508del; for EC50: primary hBE cells homozygous F508del/F508del, test C2 corrector with co-corrector and potentiator, 18-24 hours at 37° C., equivalent CFTR current (IEQ)/AUC. The procedure, abridged:
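F508del/F508del primary hBE cells grown 35 days at air-liquid interface were treated basolaterally with C2 correctors plus fixed co-corrector and potentiator for 18-24 h at 37° C. TECC-24 current clamp at 36.5° C in HEPES-buffered F-12 Coon's, pH 7.4; equivalent current IEQ=VT/RT, plus AUC between forskolin peak and bumetanide.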

A further test has as its target T2, F508delCFTR (Homo sapiens, UniProt P13569, DEL508-508).
T2 construct: expressed in transfected cells; host or cells: CFBE41o- human lung-derived epithelial cell line, doxycycline-inducible expression
Put plainly: Cell Surface Expression-Horse Radish Peroxidase (CSE-HRP) assay in CFBE41o-F508delCFTR-HRP cells. The note with it: for EC50: CFBE41o-F508delCFTR-HRP cells, 18-24 hours at 33° C., luminescence; for Maximum % activity (without co-corrector) / Maximum % activity (with co-corrector): normalized to on-plate positive control corrector (2 μM). Type of test: cell-based. The procedure, abridged:
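CFBE41o- cells expressing F508delCFTR with HRP in the fourth exofacial loop were doxycycline-induced (0.5 μg/mL) for 68–72 h, then exposed to correctors for 18–24 h at 33 °C, with or without 2 μM co-corrector. Surface HRP was read by luminol luminescence, and % activity was normalized to the on-plate positive control; EC50 came from a variable-slope sigmoidal fit (8 points, 3-fold dilution, 20 or 30 μM top).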

[1] abbreviates: with co-corrector (2 μM), read-out: EC50 (with co-corrector).
Setting [2] is: without co-corrector, read-out: EC50 (without co-corrector).

Like-named read-outs stand apart in the source and are kept apart here.

T2 sequence (P13569 with tags, fused parts or gaps DEL508-508): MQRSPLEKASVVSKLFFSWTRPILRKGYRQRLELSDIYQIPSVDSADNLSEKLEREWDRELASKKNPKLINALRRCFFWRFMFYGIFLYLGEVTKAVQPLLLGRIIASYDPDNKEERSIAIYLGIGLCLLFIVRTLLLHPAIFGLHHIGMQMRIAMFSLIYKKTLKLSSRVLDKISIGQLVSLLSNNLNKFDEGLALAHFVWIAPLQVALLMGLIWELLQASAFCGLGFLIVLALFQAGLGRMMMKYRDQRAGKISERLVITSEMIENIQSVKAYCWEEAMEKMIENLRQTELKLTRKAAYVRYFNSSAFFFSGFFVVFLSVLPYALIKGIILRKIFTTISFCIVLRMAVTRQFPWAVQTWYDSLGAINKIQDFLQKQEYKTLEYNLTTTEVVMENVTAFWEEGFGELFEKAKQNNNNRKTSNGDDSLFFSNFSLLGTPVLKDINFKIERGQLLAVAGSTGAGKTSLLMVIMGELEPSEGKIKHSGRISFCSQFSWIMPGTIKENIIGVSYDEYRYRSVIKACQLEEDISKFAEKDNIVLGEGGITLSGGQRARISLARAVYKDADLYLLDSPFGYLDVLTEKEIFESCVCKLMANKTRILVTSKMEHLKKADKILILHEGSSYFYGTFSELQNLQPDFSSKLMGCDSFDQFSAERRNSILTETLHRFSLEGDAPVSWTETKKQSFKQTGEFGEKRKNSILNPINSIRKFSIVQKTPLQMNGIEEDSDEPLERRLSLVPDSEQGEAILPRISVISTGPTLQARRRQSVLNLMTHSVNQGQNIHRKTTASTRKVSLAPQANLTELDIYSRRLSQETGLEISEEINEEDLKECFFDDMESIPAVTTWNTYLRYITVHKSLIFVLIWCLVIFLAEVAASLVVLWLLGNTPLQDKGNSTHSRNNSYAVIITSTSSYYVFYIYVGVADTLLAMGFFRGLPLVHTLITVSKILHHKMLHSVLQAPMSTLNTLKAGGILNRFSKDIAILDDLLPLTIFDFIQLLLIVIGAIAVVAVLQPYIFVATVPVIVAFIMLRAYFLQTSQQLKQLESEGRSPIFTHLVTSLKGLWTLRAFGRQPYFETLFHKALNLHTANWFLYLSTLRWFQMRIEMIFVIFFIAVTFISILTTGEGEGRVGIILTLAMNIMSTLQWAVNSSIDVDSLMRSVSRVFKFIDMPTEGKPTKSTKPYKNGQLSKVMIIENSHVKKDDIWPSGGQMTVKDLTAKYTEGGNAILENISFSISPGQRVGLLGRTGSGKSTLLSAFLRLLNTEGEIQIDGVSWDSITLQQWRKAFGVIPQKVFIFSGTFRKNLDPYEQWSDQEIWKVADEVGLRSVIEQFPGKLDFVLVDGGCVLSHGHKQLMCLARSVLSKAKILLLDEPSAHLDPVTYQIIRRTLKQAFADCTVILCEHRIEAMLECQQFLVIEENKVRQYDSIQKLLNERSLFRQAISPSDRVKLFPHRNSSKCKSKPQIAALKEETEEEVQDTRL
T1 sequence (P13569 with tags, fused parts or gaps DEL508-508): as above

Take `COc1ccc(C)cc1[C@]1(C(=O)NS(=O)(=O)c2cccc3nc(C)ccc23)C[C@@H]1c1cccc(C(C)C)n1` [Example 57, (1S,2S)-1-(2-methoxy-5-methylphenyl)-N-(2-methylquinoline-5-sulfonyl)-2-[6-(propan-2-yl)pyridin-2-yl]cyclopropane-1-carboxamide]: the “Emax (% Dual)” value on F508del/F508del CFTR stood at 253 % Dual. For the same compound, the EC50 was determined as 19.2 nM on F508del/F508del CFTR, 510 nM at F508delCFTR (setting [1]) and 1130 nM at F508delCFTR (setting [2]).
On the same counts, the results for `COc1cccc([C@H]2C[C@@]2(C(=O)NS(=O)(=O)c2cccc3nc(C)ccc23)c2cc(C)ccc2OC)n1` [Example 43, (1s,2s)-1-(2-methoxy-5-methylphenyl)-2-(6-methoxypyridin-2-yl)-N-(2-methylquinoline-5-sulfonyl)cyclopropane-1-carboxamide] are 272 % Dual, 2.9 nM, 806 nM and 2420 nM.
Take `COc1cnc([C@H]2C[C@@]2(C(=O)NS(=O)(=O)c2cccc3nc(C)ccc23)c2cc(C)ccc2OC)cn1` (single isomer, unassigned) [Example 48]: the “Emax (% Dual)” value at F508del/F508del CFTR stood at 401 % Dual. Also, the EC50 on F508del/F508del CFTR came out at 47.1 nM; at F508delCFTR (setting [1]) it was 1080 nM; at F508delCFTR (setting [2]) it was 1780 nM. In addition, the “Maximum % activity (without co-corrector)” value at F508delCFTR (without co-corrector) worked out at 790%.
Consider `COc1ccc([C@@H]2C[C@]2(C(=O)NS(=O)(=O)c2cccc3nc(C)ccc23)c2cc(C)ccc2OC)c(OC)n1` (single isomer, unassigned) [Example 93], for which the “Emax (% Dual)” value at F508del/F508del CFTR stood at 271 % Dual. The EC50 on F508del/F508del CFTR was 42.6 nM; at F508delCFTR (setting [1]), 132 nM; at F508delCFTR (setting [2]) it was 268 nM. For the same compound, the “Maximum % activity (without co-corrector)” value at F508delCFTR (without co-corrector) was 491%.
For the compound `COc1ccc(C)cc1[C@]1(C(=O)NS(=O)(=O)c2cccc3nc(C)ccc23)C[C@@H]1c1ccc(C)nc1C` [Example 81, (1S,2R)-2-(2,6-dimethylpyridin-3-yl)-1-(2-methoxy-5-methylphenyl)-N-(2-methylquinoline-5-sulfonyl)cyclopropane-1-carboxamide], at F508del/F508del CFTR, the “Emax (% Dual)” value came to 173 % Dual. Further, the figures for the EC50 on F508del/F508del CFTR, on F508delCFTR (setting [1]) and at F508delCFTR (setting [2]) were 94.4 nM, 3980 nM and 5780 nM, respectively. Besides, the “Maximum % activity (with co-corrector)” value at F508delCFTR (with co-corrector (2 μM)) is listed as 876%. The “Maximum % activity (without co-corrector)” value on F508delCFTR (without co-corrector) was 476%.
Turning to `COc1ccc(C)cc1[C@@]1(C(=O)NS(=O)(=O)c2cccc3nc(C)ccc23)C[C@H]1c1ccc(C(C)C)nc1OC` (racemic) [Example 78, rac-(1r,2s)-1-(2-methoxy-5-methylphenyl)-2-[2-methoxy-6-(propan-2-yl)pyridin-3-yl]-N-(2-methylquinoline-5-sulfonyl)cyclopropane-1-carboxamide], the “Emax (% Dual)” value at F508del/F508del CFTR was 282 % Dual. In addition, the EC50 came out at 30.3 nM at F508del/F508del CFTR, 364 nM at F508delCFTR (setting [1]) and 825 nM at F508delCFTR (setting [2]). For the same compound, the “Maximum % activity (without co-corrector)” value on F508delCFTR (without co-corrector) is 825%.
On the same counts, the results for `COc1ccc(C)cc1C1(C(=O)NS(=O)(=O)c2cccc3nc(C)ccc23)CC1c1ccc(C(F)(F)F)cc1` (racemic) [Example 5, rac-(1r,2s)-1-(2-methoxy-5-methylphenyl)-N-(2-methylquinoline-5-sulfonyl)-2-[4-(trifluoromethyl)phenyl]cyclopropane-1-carboxamide] are 253 % Dual, 3.5 nM, 187 nM, 306 nM and 741%.
Regarding `COc1ccc([C@@H]2C[C@]2(C(=O)NS(=O)(=O)c2cccc3nc(C)ccc23)c2cc(C)ccc2OC)cc1` (racemic) [Example 9, rac-(1r,2s)-1-(2-methoxy-5-methylphenyl)-2-(4-methoxyphenyl)-N-(2-methylquinoline-5-sulfonyl)cyclopropane-1-carboxamide], at F508del/F508del CFTR, the “Emax (% Dual)” value was 381 % Dual and the EC50 came out at 1.1 nM. Besides, on F508delCFTR (setting [2]), the EC50 is 1670 nM.
On to `COc1ccc([C@@H]2C[C@]2(C(=O)NS(=O)(=O)c2cccc3nc(C)ccc23)c2cc(C)ccc2OC)cc1` (single isomer, unassigned) [Example 16], for which the “Emax (% Dual)” value at F508del/F508del CFTR is listed as 308 % Dual. The EC50 on F508del/F508del CFTR was 8.4 nM; at F508delCFTR (setting [1]), 393 nM; at F508delCFTR (setting [2]), 328 nM. Further, the “Maximum % activity (without co-corrector)” value at F508delCFTR (without co-corrector, 2 µM) worked out at 784%.
For `CCOc1ccc([C@H]2C[C@@]2(C(=O)NS(=O)(=O)c2cccc3nc(C)ccc23)c2cc(C)ccc2OC)cn1` [Example 58, (1S,2R)-2-(6-ethoxypyridin-3-yl)-1-(2-methoxy-5-methylphenyl)-N-(2-methylquinoline-5-sulfonyl)cyclopropane-1-carboxamide], the “Emax (% Dual)” value at F508del/F508del CFTR is 246 % Dual. The results for the EC50 on F508del/F508del CFTR, on F508delCFTR (setting [1]) and at F508delCFTR (setting [2]) were 31.4 nM, 2120 nM and 3910 nM, respectively.
With `CCOc1ncccc1[C@@H]1C[C@]1(C(=O)NS(=O)(=O)c1cccc2nc(C)ccc12)c1cc(C)ccc1OC` (single isomer, unassigned) [Example 73], on F508del/F508del CFTR, the “Emax (% Dual)” value came to 230 % Dual. In addition, the figures for the EC50 on F508del/F508del CFTR, at F508delCFTR (setting [1]) and at F508delCFTR (setting [2]) were 30.6 nM, 785 nM and 1440 nM, respectively. Further, the “Maximum % activity (without co-corrector)” value on F508delCFTR (without co-corrector) is given as 539%.
For the compound `CCOc1cccc([C@@H]2C[C@]2(C(=O)NS(=O)(=O)c2cccc3nc(C)ccc23)c2cc(C)ccc2OC)n1` [Example 56, (1R,2R)-2-(6-ethoxypyridin-2-yl)-1-(2-methoxy-5-methylphenyl)-N-(2-methylquinoline-5-sulfonyl)cyclopropane-1-carboxamide], the “Emax (% Dual)” value on F508del/F508del CFTR amounted to 290 % Dual. Further, the figures for the EC50 on F508del/F508del CFTR, at F508delCFTR (setting [1]) and on F508delCFTR (setting [2]) were 8.5 nM, 386 nM and 890 nM, respectively. On F508delCFTR (with co-corrector (2 μM)), the “Maximum % activity (with co-corrector)” value was 917%. The “Maximum % activity (without co-corrector)” value at F508delCFTR (without co-corrector) is 370%.
Take `COc1ccc(C)cc1[C@]1(C(=O)NS(=O)(=O)c2cccc3nc(C)ccc23)C[C@@H]1c1cnc(C)c(F)c1` (single isomer, unassigned) [Example 100]: the “Emax (% Dual)” value on F508del/F508del CFTR amounted to 207 % Dual. In addition, the EC50 on F508del/F508del CFTR stood at 114 nM; on F508delCFTR (setting [1]), 2780 nM; at F508delCFTR (setting [2]), 4490 nM.
With `COc1cncc([C@H]2C[C@@]2(C(=O)NS(=O)(=O)c2cccc3nc(C)ccc23)c2cc(C)ccc2OC)c1` (single isomer, unassigned) [Example 52], at F508del/F508del CFTR, the “Emax (% Dual)” value came to 283 % Dual. Also, the values for the EC50 on F508del/F508del CFTR, at F508delCFTR (setting [1]) and on F508delCFTR (setting [2]) were 26.6 nM, 2140 nM and 3320 nM, respectively. Besides, at F508delCFTR (without co-corrector), the “Maximum % activity (without co-corrector)” value is given as 608%.
The corresponding values for `COCc1cccc([C@H]2C[C@@]2(C(=O)NS(=O)(=O)c2cccc3nc(C)ccc23)c2cc(C)ccc2OC)n1` [Example 90, (1S,2S)-1-(2-methoxy-5-methylphenyl)-2-[6-(methoxymethyl)pyridin-2-yl]-N-(2-methylquinoline-5-sulfonyl)cyclopropane-1-carboxamide] are 348 % Dual, 40.4 nM, 900 nM, 1720 nM and 812%.
With `COc1ccc(C)cc1[C@]1(C(=O)NS(=O)(=O)c2cccc3nc(C)ccc23)C[C@@H]1c1cccc(C(F)F)n1` [Example 77, (1S,2S)-2-[6-(difluoromethyl)pyridin-2-yl]-1-(2-methoxy-5-methylphenyl)-N-(2-methylquinoline-5-sulfonyl)cyclopropane-1-carboxamide], at F508del/F508del CFTR, the “Emax (% Dual)” value is 289 % Dual. Besides, the EC50 is 0.4 nM on F508del/F508del CFTR, 327 nM on F508delCFTR (setting [1]) and 1660 nM at F508delCFTR (setting [2]).
On the same counts, the results for `COc1cccc([C@H]2C[C@@]2(C(=O)NS(=O)(=O)c2cccc3nc(C)ccc23)c2cc(C)ccc2OC)c1` (single isomer, unassigned) [Example 28] are 304 % Dual, 2.6 nM, 417 nM and 951 nM.
Regarding `COc1cccc([C@@H]2C[C@]2(C(=O)NS(=O)(=O)c2cccc3nc(C)ccc23)c2cc(C)ccc2OC)n1` [Example 44, (1R,2R)-1-(2-methoxy-5-methylphenyl)-2-(6-methoxypyridin-2-yl)-N-(2-methylquinoline-5-sulfonyl)cyclopropane-1-carboxamide], the “Emax (% Dual)” value at F508del/F508del CFTR turned out to be 193 % Dual. Also, the EC50 on F508del/F508del CFTR stood at 16.6 nM; on F508delCFTR (setting [1]), 865 nM; at F508delCFTR (setting [2]) it was 1410 nM. The “Maximum % activity (with co-corrector)” value on F508delCFTR (with co-corrector (2 μM)) was found to be 982%. The “Maximum % activity (without co-corrector)” value at F508delCFTR (without co-corrector) is on record as 384%.

Values taken from patent US20240043386A1, “Modulators of the Cystic Fibrosis Transmembrane Conductance Regulator Protein and Methods of Use” (AbbVie Global Enterprises Ltd., priority 2021, published 2024).
